Legend:
Hepatocyte stability = type: in vitro ADME, human; details: for half-life at 1 μM: human, Table 3 of Example 15: 1 μM test compound, 0.5 million cells/mL hepatocytes, 37° C.
Method: Metabolic stability of compounds can be evaluated using human, rat, mouse, or other animal hepatocytes to predict intrinsic clearance. Human LiverPool™ 20-donor and animal cryopreserved hepatocytes were obtained from BioreclamationIVT.
Cryopreserved hepatocytes were removed from a liquid nitrogen tank and thawed in a 37° C. water bath. As soon as the cells pull away from the vial wall, they were decanted into 48 mL of warm HT medium. Cells were centrifuged for four minutes at 420 rpm (50 g). After removing the supernatant, the pellet was re-suspended in warm DMEM medium. Cell density was counted by a hemacytometer.
The assay was carried out in 96-well microtiter plates. Compound 5 was incubated for 0, 60, 120, and 180 minutes at 37° C. with hepatocytes. Reaction mixtures (50 μL) contain a final concentration of 1 μM test compound, 0.5 million cells/mL hepatocytes in the DMEM medium. At each of the time points (for example, 0, 1, 2, and 3 hours), 200 μL of quench solution (100% acetonitrile with 0.1% formic acid) with internal standard was transferred to each well. Midazolam was included as a positive control to verify assay performance. Plates were sealed and centrifuged at 4° C. for 15 minutes at 4000 rpm. The supernatant was transferred to fresh plates for LC/MS/MS analysis.
All samples were analyzed on LC/MS/MS using an AB Sciex API 4000 instrument, coupled to a Shimadzu LC-20AD LC Pump system. Analytical samples were separated using a Waters Atlantis T3 dC18 reverse phase HPLC column (20 mm×2.1 mm) at a flow rate of […]. The mobile phase consists of 0.1% formic acid in water (solvent A) and 0.1% formic acid in 100% acetonitrile (solvent B).
The extent of metabolism was calculated as the disappearance of the test compound, compared to the 0-min control reaction incubations. Initial rates are calculated for the compound concentration and used to determine t½ values and subsequently, the intrinsic clearance, CLint=(0.693)(1/t½ (min))(mL incubation/million cells).

IFN-a/Jak1 Tyk2 = assay: Co-stimulation assay in lysed whole blood: IFNa (JAK1/TYK2) stimulated STAT1 phosphorylation; type: cell-based; details: Homo sapiens, 20 min, 100 ng/mL IFNa (with 10 ng/mL GM-CSF), pSTAT by flow cytometry
How it was run: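 Lysed human whole blood (RBC-lysed, resuspended in cRPMI) pre-incubated with compound 1 h at 37 °C, then stimulated 20 min with IFNa 100 ng/mL plus GM-CSF 10 ng/mL (final). Fixed, permeabilised, stained for pSTAT1 (PE) and pSTAT5 (AF488); flow cytometry read-out, ≥5,000–10,000 cells acquired.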

Row | SMILES | half-life at 1 μM (Hepatocyte stability) [h] | metabolic stability compared to the corresponding amide compound (Hepatocyte stability; hepatocytes, statement in words) | IC50 (IFN-a/Jak1 Tyk2) [µM]
1 | CNc1cc(Nc2cc(F)cc3c2OCCO3)nc2c(NC(=O)N[C@@H]3C[C@@H]3F)cnn12 [drawing 293] | > 6 | – | –
2 | CNc1cc(Nc2cc(F)cc3c2OCCO3)nc2c(C(=O)N[C@@H]3C[C@@H]3F)cnn12 [drawing 294, reference compound] | < 1.67 | – | –
3 | CNc1cc(Nc2cc(F)cc3c2OCCO3)nc2c(NC(=O)N[C@@H]3C[C@@H]3F)cnn12 [Compound 5, 1-(5-((7-fluoro-2,3-dihydrobenzo[b][1,4]dioxin-5-yl)amino)-7-(methylamino)pyrazolo[1,5-a]pyrimidin-3-yl)-3-((1R,2S)-2-fluorocyclopropyl)urea] | – | unexpected high metabolic stability | < 1

— patent publication US11753411B2, “Substituted pyrazolo[1,5-a]pyrimidines as TYK2 pseudokinase ligands” (Ventyx Biosciences, Inc., priority 2019, dated 2023)
